Experimental data: patent US11124540B2, “Polypeptides for the treatment of diseases” (Neopep Pharma GmbH & Co., KG, priority 2017, dated 2021)

System: Pancreas carcinoma cells
Test: Cancer cell invasion assay on humanized rats with implanted pancreas carcinoma cells
Format: in vivo
Details: for Tumor response, 2 w of therapy: after 2 weeks of therapy; for Tumor response, 2 w after end of therapy: 2 weeks after end of therapy; for Tumor response, 1 w of therapy: after 1 week of therapy
Experimental: The cancer cell invasion assay was performed on humanized rats (Eyol, E. et al., Oncology Reports, 28: 2177-2187, 2012). Pancreas carcinoma cells were implanted. The successful implant was observed by luminescent imaging as well as by an increase in CXCR4 expression.
After a successful implant of carcinoma cells, the rats were treated with a peptide according to Seq ID No. 1 and Seq. ID No. 9 respectively. The results after 1 week of therapy (1 w of therapy), after 2 weeks of therapy (2 w of therapy) and 2 weeks after end of therapy are depicted in the below tables.

Sequence	Tumor response, 2 w of therapy (amount of peptide 7 mg)	Tumor response, 2 w after end of therapy (amount of peptide 10 mg)	Tumor response, 1 w of therapy (amount of peptide 10 mg)	Tumor response, 2 w of therapy (amount of peptide 10 mg)	Tumor response, 2 w after end of therapy (amount of peptide 20 mg)	Tumor response, 1 w of therapy (amount of peptide 20 mg)	Tumor response, 2 w after end of therapy (amount of peptide 70 mg)	Tumor response, 1 w of therapy (amount of peptide 70 mg)	Tumor response, 2 w of therapy (amount of peptide 70 mg)	Tumor response, 2 w after end of therapy (amount of peptide 35 mg)
IVRWSKKVPQVS (human) [Seq ID No. 1, Ile Val Arg Trp Ser Lys Lys Val Pro Gln Val Ser]	No tumor growth	Tumor growth	No tumor growth	Tumor growth	Complete Remission	No tumor growth	Complete Remission	No tumor growth	Remission	
ILRWSRKMPQFS (human) [Seq ID No. 9, Ile Leu Arg Trp Ser Arg Lys Met Pro Gln Phe Ser]							Tumor growth	Tumor growth		Tumor growth
